From patent publication US7612211B2, “Benzimidazole TRPV1 inhibitors” (Janssen Pharmaceutica N.V., priority 2006, dated 2009) come the findings set out here.

In the assay the target is T1, hTRPV1 (Homo sapiens, UniProt Q8NER1).
T1 construct: expressed in transfected cells; host or cells: HEK293
The experiment in a line: Human TRPV1 (hTRPV1) functional assay, FLIPR intracellular Ca2+, capsaicin challenge. The format is cell-based. Particulars: HEK293 cells expressing hTRPV1, capsaicin 0.030 μM challenge; for inhibition at 0.2 µM: test concentration of 0.2 μm, read-out: percent inhibition (symbol b); for IC50: derived from a variety of test concentrations, read-out: IC50 value (symbol c); for inhibition at 0.5 µM: test concentration of 0.5 μm, read-out: percent inhibition (symbol a). How it is done:
The functional activity of the test compounds was determined by measuring changes in intracellular calcium concentration using a Ca^++-sensitive fluorescent dye and FLIPR™ technology. Increases in Ca^++ concentration were readily detected upon challenge with capsaicin.
HEK293 cells expressing hTRPV1 were grown on poly-D-lysine coated 384 well black-walled plates (BD 354663) and 1 day later loaded with Calcium 3 Dye for 35 min at 37° C., 5% CO2 and then for 25 min at room temperature, and subsequently tested for agonist-induced increases in intracellular Ca^2+ levels using FLIPR™ technology. Cells were challenged with test compounds (at varying concentrations) and intracellular Ca^2+ was measured for 5 min prior to the addition of capsaicin to all wells to achieve a final concentration of 0.030 μM eliciting ˜80% maximal response.
EC50 or IC50 values were determined from concentration-response studies, which were generated using the average of quadruplicate wells for each data point. The symbol “a” represents percent inhibition obtained at a test concentration of 0.5 μm; the symbol “b” represents percent inhibition obtained at a test concentration of 0.2 μm; the symbol “c” represents an IC50 value (nM) derived from a variety of test concentrations. The term “NA” means that the result is not applicable for a particular compound.

Molecules are shown by their SMILES.

T1 sequence (Q8NER1 whole entry): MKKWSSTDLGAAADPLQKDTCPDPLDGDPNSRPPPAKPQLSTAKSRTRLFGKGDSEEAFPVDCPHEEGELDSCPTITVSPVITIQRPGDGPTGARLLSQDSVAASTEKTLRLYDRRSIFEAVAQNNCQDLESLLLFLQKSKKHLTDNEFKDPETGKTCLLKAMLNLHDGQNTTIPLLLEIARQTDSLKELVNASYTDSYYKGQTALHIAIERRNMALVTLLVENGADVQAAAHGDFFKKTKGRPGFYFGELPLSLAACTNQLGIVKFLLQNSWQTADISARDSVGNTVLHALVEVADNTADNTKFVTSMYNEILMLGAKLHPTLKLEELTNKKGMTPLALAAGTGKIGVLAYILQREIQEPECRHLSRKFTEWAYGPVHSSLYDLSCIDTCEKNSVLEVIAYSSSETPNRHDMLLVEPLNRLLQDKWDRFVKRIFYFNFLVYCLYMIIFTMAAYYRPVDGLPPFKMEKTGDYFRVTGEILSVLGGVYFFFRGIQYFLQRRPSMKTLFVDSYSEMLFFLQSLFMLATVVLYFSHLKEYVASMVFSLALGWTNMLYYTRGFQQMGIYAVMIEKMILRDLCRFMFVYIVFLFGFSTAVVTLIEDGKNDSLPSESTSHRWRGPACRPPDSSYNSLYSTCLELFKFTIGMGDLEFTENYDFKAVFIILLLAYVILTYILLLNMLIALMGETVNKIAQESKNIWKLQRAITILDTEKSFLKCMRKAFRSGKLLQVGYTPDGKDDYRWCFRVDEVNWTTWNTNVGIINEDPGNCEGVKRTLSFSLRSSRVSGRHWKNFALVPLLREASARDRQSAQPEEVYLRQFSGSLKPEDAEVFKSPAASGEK

As usually defined, the inhibition is the percentage by which the read-out fell short of the control. In the case of `CS(=O)(=O)c1ccccc1-c1ccc2[nH]c(COc3ccc(C#N)cc3)nc2c1` [Cpd 83, 4-[5-(2-methanesulfonyl-phenyl)-1H-benzoimidazol-2-ylmethoxy]-benzonitrile], the inhibition at 0.2 µM came to 51%.

As a reminder, the IC50 is the concentration at which inhibition is half-maximal. In the case of `NS(=O)(=O)c1ccccc1-c1ccc2[nH]c(COc3ccc(SC(F)(F)F)cc3)nc2c1` [Cpd 34, 2-[2-(4-trifluoromethylsulfanyl-phenoxymethyl)-1H-benzoimidazol-5-yl]-benzenesulfonamide], the IC50 stood at 0.013 µM and the inhibition at 0.5 µM was 100%.

For the molecule `NS(=O)(=O)c1ccccc1-c1ccc2[nH]c(COc3cccc(OC(F)(F)F)c3)nc2c1` [Cpd 15, 2-[2-(3-trifluoromethoxy-phenoxymethyl)-1H-benzoimidazol-5-yl]-benzenesulfonamide], the concentration for half-maximal inhibition (IC50) worked out at 0.025 µM.

Regarding `CC(=O)c1ccc(OCc2nc3cc(-c4ccccc4S(C)(=O)=O)ccc3[nH]2)cc1` [Cpd 79, 1-{4-[5-(2-methanesulfonyl-phenyl)-1H-benzoimidazol-2-ylmethoxy]-phenyl}-ethanone], the inhibition at 0.2 µM was 61%.

`CC(C)(O)c1ccccc1-c1ccc2[nH]c(COc3ccccc3)nc2c1` [Cpd 50, 2-[2-(2-phenoxymethyl-1H-benzoimidazol-5-yl)-phenyl]-propan-2-ol]: the IC50 is 0.091 µM and the inhibition at 0.2 µM is 81%.

Consider `COC(=O)c1ccccc1-c1ccc2[nH]c(COc3ccc(C(F)(F)F)cc3)nc2c1` [Cpd 127, 2-[2-(4-trifluoromethyl-phenoxymethyl)-1H-benzoimidazol-5-yl]-benzoic acid methyl ester], for which the 50% inhibitory concentration (IC50) is 0.0243 µM and the inhibition at 0.5 µM came to 85%.

On to `CN(C)S(=O)(=O)c1ccc(-c2ccc3[nH]c(COc4ccc(C(F)(F)F)cc4)nc3c2)cc1` [Cpd 129, N,N-dimethyl-4-[2-(4-trifluoromethyl-phenoxymethyl)-1H-benzoimidazol-5-yl]-benzenesulfonamide], for which the inhibition at 0.5 µM came out at 8%.

As to `FC(F)(F)c1ccc(OCc2nc3cc(-c4ccccc4)ccc3[nH]2)cc1` [Cpd 126, 5-phenyl-2-(4-trifluoromethyl-phenoxymethyl)-1H-benzoimidazole], the inhibition at 0.5 µM amounted to 4%.

For the molecule `NS(=O)(=O)c1ccc(F)cc1-c1ccc2[nH]c(COc3ccc(C(F)(F)F)cc3)nc2c1` [Cpd 134, 4-fluoro-2-[2-(4-trifluoromethyl-phenoxymethyl)-1H-benzoimidazol-5-yl]-benzenesulfonamide], the IC50 was determined as 0.016 µM and the inhibition at 0.5 µM came out at 98%.

For `CS(=O)(=O)c1ccccc1-c1ccc2[nH]c(COc3ccc(Cl)cc3F)nc2c1` [Cpd 66, 2-(4-chloro-2-fluoro-phenoxymethyl)-5-(2-methanesulfonyl-phenyl)-1H-benzoimidazole], the half-maximal inhibitory concentration (IC50) worked out at 0.081 µM and the inhibition at 0.2 µM was found to be 85%.

`CC(O)C(=O)c1ccccc1-c1ccc2[nH]c(COc3ccc(C(F)(F)F)cc3)nc2c1` (centres unmarked) [Cpd 146, 2-hydroxy-1-{2-[2-(4-trifluoromethyl-phenoxymethyl)-1H-benzoimidazol-5-yl]-phenyl}-propan-1-one]: the inhibition at 0.2 µM was 72%.

Regarding `CN(C)S(=O)(=O)c1ccccc1-c1ccc2[nH]c(COc3ccc(C4CC4)cc3)nc2c1` [Cpd 166, 2-[2-(4-cyclopropyl-phenoxymethyl)-1H-benzoimidazol-5-yl]-N,N-dimethyl-benzenesulfonamide], the IC50 is 0.007 µM and the inhibition at 0.2 µM was 98%.

Regarding `CS(=O)(=O)c1ccccc1-c1ccc2[nH]c(COc3ccc4c(c3)CCC4)nc2c1` [Cpd 91, 2-(indan-5-yloxymethyl)-5-(2-methanesulfonyl-phenyl)-1H-benzoimidazole], the IC50 amounted to 0.021 µM and the inhibition at 0.2 µM turned out to be 99%.

As to `CCOc1ccc(OCc2nc3cc(-c4ccccc4S(N)(=O)=O)ccc3[nH]2)cc1` [Cpd 33, 2-[2-(4-ethoxy-phenoxymethyl)-1H-benzoimidazol-5-yl]-benzenesulfonamide], the concentration for half-maximal inhibition (IC50) stood at 0.044 µM and the inhibition at 0.5 µM was found to be 100%.

`Cn1c(COc2ccc(C(F)(F)F)cc2)nc2cc(-c3ccccc3S(N)(=O)=O)ccc21` [Cpd 40, 2-[1-methyl-2-(4-trifluoromethyl-phenoxymethyl)-1H-benzoimidazol-5-yl]-benzenesulfonamide]: the IC50 came to 0.0086 µM and the inhibition at 0.5 µM was 100%.

With `CS(=O)(=O)c1cccc(-c2ccc3[nH]c(COc4ccc(C(F)(F)F)cc4)nc3c2)c1` [Cpd 99, 5-(3-methanesulfonyl-phenyl)-2-(4-trifluoromethyl-phenoxymethyl)-1H-benzoimidazole], the inhibition at 0.5 µM came to 14%.

On to `NS(=O)(=O)c1ccccc1-c1ccc2[nH]c(CS(=O)(=O)c3ccc(C(F)(F)F)cc3)nc2c1` [Cpd 44, 2-[2-(4-trifluoromethyl-benzenesulfonylmethyl)-1H-benzoimidazol-5-yl]-benzenesulfonamide], for which the inhibition at 0.2 µM came to 12%.

Consider `CS(=O)(=O)c1ccccc1-c1ccc2[nH]c(COc3cccc(Cl)c3)nc2c1` [Cpd 58, 2-(3-chloro-phenoxymethyl)-5-(2-methanesulfonyl-phenyl)-1H-benzoimidazole], for which the inhibition at 0.2 µM was 22%.

With `CNS(=O)(=O)c1ccc(-c2ccc3[nH]c(COc4ccc(C(F)(F)F)cc4)nc3c2)cc1` [Cpd 125, N-methyl-4-[2-(4-trifluoromethyl-phenoxymethyl)-1H-benzoimidazol-5-yl]-benzenesulfonamide], the inhibition at 0.5 µM came out at 11%.

`COc1ccc(OCc2nc3cc(-c4ccccc4S(C)(=O)=O)ccc3[nH]2)cc1` [Cpd 96, 5-(2-methanesulfonyl-phenyl)-2-(4-methoxy-phenoxymethyl)-1H-benzoimidazole]: the inhibition at 0.2 µM was 6%.

In the case of `CC(=O)c1ccc(OCc2nc3cc(-c4ccccc4S(N)(=O)=O)ccc3[nH]2)cc1` [Cpd 35, 2-[2-(4-acetyl-phenoxymethyl)-1H-benzoimidazol-5-yl]-benzenesulfonamide], the IC50 was found to be 0.016 µM and the inhibition at 0.5 µM was determined as 97%.

For the molecule `NS(=O)(=O)c1ccccc1-c1ccc2[nH]c(C(F)(F)Oc3ccc(C(F)(F)F)cc3)nc2c1` [Cpd 139, 2-{2-[difluoro-(4-trifluoromethyl-phenoxy)-methyl]-1H-benzoimidazol-5-yl}-benzenesulfonamide], the half-inhibitory concentration (IC50) was determined as 0.021 µM and the inhibition at 0.5 µM is 99%.

With `CC(C)(O)c1ccccc1-c1ccc2[nH]c(COc3ccc(OC(F)(F)F)cc3)nc2c1` [Cpd 22, 2-{2-[2-(4-trifluoromethoxy-phenoxymethyl)-1H-benzoimidazol-5-yl]-phenyl}-propan-2-ol], the IC50 is 0.004 µM and the inhibition at 0.5 µM stood at 100%.

Consider `Oc1ccc(-c2ccc3[nH]c(COc4ccc(C(F)(F)F)cc4)nc3c2)cc1` [Cpd 121, 4-[2-(4-trifluoromethyl-phenoxymethyl)-1H-benzoimidazol-5-yl]-phenol], for which the inhibition at 0.5 µM worked out at 9%.

For the molecule `CC(C)(C)c1ccc(OCc2nc3cc(-c4ccccc4S(N)(=O)=O)ccc3[nH]2)cc1` [Cpd 32, 2-[2-(4-tert-butyl-phenoxymethyl)-1H-benzoimidazol-5-yl]-benzenesulfonamide], the IC50 was 0.006 µM and the inhibition at 0.2 µM turned out to be 100%.

For the molecule `CN(C)C(=O)C(O)c1ccccc1-c1ccc2[nH]c(COc3ccc(C(F)(F)F)cc3)nc2c1` (centres unmarked) [Cpd 148, N,N-dimethyl-2-hydroxy-2-{2-[2-(4-trifluoromethyl-phenoxymethyl)-1H-benzoimidazol-5-yl]-phenyl}-acetamide], the half-inhibitory concentration (IC50) is 0.058 µM and the inhibition at 0.2 µM is 89%.

On to `COC(=O)c1ccc(-c2ccc3[nH]c(COc4ccc(C(F)(F)F)cc4)nc3c2)cc1` [Cpd 131, 4-[2-(4-trifluoromethyl-phenoxymethyl)-1H-benzoimidazol-5-yl]-benzoic acid methyl ester], for which the inhibition at 0.5 µM came to 5%.

On to `CC(=O)Nc1ccccc1-c1ccc2[nH]c(COc3ccc(C(F)(F)F)cc3)nc2c1` [Cpd 113, N-{2-[2-(4-trifluoromethyl-phenoxymethyl)-1H-benzoimidazol-5-yl]-phenyl}-acetamide], for which the inhibition at 0.5 µM came to 42%.

For the molecule `OCc1ccc(-c2ccc3[nH]c(COc4ccc(C(F)(F)F)cc4)nc3c2)cc1` [Cpd 118, {4-[2-(4-trifluoromethyl-phenoxymethyl)-1H-benzoimidazol-5-yl]-phenyl}-methanol], the inhibition at 0.5 µM was determined as 2%.

For `CS(=O)(=O)c1ccccc1-c1ccc2[nH]c(COc3ccc(F)cc3)nc2c1` [Cpd 56, 2-(4-fluoro-phenoxymethyl)-5-(2-methanesulfonyl-phenyl)-1H-benzoimidazole], the inhibition at 0.2 µM was 31%.

On to `O=S(=O)(c1ccccc1-c1ccc2[nH]c(COc3ccc(C(F)(F)F)cc3)nc2c1)C(F)(F)F` [Cpd 158, 5-(2-trifluoromethanesulfonyl-phenyl)-2-(4-trifluoromethyl-phenoxymethyl)-1H-benzoimidazole], for which the inhibition at 0.2 µM was determined as 13%.

Regarding `CS(=O)(=O)Nc1ccccc1-c1ccc2[nH]c(COc3ccc(C4CC4)cc3)nc2c1` [Cpd 168, N-{2-[2-(4-cyclopropyl-phenoxymethyl)-1H-benzoimidazol-5-yl]-phenyl}-methanesulfonamide], the IC50 worked out at 0.024 µM and the inhibition at 0.2 µM was determined as 97%.
